Reference: ChEMBL document CHEMBL5247592, “Discovery of novel VEGFR-2-PROTAC degraders based on the localization of lysine residues via recruiting VHL for the treatment of gastric cancer” (Eur J Med Chem, 2022)
pEC50, pIC50: −log10 of the molar value. Activity calls are given as the source filed them. The calls are words filed in the database; no cut-off is given here. Residues, ends and D or L forms follow the SMILES beside them. *: point of attachment. Cbz = O=C(OCc1ccccc1)*

Tests used:
[1] = Cytotoxicity against HEK293T cells assessed as inhibition of cell growth incubated for 72 hrs by MTT assay; type: toxicity, cell-based, HEK-293T; conditions: human
HGC-27 = test: Antiproliferative activity against human HGC-27 cells assessed as inhibition of cell growth incubated for 72 hrs by MTT assay; type: functional, cell-based; conditions: HGC-27, 72 h
[2] = molecular target: T1, von Hippel-Lindau disease tumor suppressor/Vascular endothelial growth factor receptor 2 (Homo sapiens, UniProt P35968+P40337); test: PROTAC activity at VHL/VEGFR2 in human HGC-27 cells assessed as reduction in VEGFR2 protein level by measuring maximal efficacy incubated for 24 hrs by Western blot analysis relative to control; type: cell-based
Target sequence in this assay (P35968 20-1356 limits assumed): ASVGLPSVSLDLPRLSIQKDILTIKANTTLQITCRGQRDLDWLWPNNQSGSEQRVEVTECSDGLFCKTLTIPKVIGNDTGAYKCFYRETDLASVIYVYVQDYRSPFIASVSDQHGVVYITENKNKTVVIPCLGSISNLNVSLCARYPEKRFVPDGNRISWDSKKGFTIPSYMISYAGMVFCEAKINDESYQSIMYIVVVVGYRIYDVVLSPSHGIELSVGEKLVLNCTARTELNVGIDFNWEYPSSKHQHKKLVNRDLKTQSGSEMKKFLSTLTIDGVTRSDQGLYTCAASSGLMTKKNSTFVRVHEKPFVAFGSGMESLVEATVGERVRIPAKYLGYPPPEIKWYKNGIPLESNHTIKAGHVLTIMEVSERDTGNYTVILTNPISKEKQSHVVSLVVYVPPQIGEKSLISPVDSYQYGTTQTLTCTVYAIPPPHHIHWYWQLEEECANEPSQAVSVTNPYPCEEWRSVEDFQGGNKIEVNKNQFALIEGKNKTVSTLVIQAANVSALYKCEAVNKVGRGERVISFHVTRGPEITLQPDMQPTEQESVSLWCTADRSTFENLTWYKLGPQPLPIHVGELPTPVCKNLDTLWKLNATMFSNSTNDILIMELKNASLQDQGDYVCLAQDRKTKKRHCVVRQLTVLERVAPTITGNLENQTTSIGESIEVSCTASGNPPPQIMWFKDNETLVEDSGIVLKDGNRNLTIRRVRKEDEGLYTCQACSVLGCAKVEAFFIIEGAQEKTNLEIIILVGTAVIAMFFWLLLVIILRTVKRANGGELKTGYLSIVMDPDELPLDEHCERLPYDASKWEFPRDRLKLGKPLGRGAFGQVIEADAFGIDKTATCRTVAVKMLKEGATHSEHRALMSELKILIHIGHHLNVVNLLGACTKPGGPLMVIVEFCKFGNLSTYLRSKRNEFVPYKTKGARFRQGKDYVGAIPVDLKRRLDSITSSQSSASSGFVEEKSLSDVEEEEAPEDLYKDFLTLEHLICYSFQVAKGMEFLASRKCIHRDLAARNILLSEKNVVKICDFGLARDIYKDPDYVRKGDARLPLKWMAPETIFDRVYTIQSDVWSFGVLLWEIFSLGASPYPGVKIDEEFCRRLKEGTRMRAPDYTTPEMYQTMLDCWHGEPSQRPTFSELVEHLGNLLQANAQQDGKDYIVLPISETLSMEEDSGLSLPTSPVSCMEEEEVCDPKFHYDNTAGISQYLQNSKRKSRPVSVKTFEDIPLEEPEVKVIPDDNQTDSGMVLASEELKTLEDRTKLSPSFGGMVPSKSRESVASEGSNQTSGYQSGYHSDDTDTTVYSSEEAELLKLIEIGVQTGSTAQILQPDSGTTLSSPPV
Target sequence in this assay (P40337 whole entry partner): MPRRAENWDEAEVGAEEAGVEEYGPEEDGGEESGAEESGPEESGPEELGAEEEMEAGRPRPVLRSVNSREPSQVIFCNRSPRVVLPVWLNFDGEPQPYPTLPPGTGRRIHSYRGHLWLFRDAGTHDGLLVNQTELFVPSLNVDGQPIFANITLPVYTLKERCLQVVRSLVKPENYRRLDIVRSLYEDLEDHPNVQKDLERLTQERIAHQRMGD

[3] = molecular target: T1, von Hippel-Lindau disease tumor suppressor/Vascular endothelial growth factor receptor 2; test: PROTAC activity at VHL/VEGFR2 in human HGC-27 cells assessed as reduction in VEGFR2 protein level incubated for 24 hrs by Western blot analysis; type: cell-based
Target sequence in this assay (P35968 whole entry): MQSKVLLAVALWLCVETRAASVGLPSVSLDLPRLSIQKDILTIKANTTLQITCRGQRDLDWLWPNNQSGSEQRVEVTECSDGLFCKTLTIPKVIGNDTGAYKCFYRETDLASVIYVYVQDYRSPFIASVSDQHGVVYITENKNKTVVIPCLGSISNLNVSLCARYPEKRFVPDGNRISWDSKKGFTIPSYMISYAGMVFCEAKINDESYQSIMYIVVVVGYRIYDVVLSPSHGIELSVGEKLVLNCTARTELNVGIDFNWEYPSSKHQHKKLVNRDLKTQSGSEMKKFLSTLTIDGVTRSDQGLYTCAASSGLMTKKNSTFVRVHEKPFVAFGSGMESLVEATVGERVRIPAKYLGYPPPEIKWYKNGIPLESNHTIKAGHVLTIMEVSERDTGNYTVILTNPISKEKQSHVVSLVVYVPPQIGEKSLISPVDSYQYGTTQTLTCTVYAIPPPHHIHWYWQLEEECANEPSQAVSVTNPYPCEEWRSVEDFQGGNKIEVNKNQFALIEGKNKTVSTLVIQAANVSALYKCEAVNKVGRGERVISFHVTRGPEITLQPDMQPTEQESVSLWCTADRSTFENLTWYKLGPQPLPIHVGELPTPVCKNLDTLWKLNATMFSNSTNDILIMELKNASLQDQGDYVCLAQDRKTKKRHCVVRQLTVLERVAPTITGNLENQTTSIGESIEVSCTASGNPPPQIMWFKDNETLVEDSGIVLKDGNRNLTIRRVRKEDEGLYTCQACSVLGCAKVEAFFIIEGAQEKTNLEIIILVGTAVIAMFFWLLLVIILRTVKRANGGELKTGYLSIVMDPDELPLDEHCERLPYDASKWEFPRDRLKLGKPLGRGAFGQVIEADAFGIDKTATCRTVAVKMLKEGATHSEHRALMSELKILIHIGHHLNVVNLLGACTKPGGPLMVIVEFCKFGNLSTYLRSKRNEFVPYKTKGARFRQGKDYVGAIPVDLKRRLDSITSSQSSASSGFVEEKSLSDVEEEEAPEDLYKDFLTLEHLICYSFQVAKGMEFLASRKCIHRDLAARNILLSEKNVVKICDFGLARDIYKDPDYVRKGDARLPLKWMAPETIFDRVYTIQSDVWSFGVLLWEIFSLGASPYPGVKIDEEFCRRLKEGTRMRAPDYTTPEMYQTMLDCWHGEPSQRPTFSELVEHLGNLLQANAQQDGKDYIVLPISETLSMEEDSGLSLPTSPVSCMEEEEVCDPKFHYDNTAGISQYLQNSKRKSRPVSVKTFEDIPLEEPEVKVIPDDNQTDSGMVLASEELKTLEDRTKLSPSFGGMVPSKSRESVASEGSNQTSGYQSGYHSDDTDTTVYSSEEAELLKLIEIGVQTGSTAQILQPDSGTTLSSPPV
Target sequence in this assay (P40337 whole entry): as the sequence (P40337 whole entry partner) above

[4] = Cytotoxicity against human GES1 cells assessed as inhibition of cell growth incubated for 72 hrs by MTT assay; type: toxicity, cell-based
[5] = Cytotoxicity against HUVEC cells assessed as inhibition of cell growth incubated for 72 hrs by MTT assay; type: toxicity, cell-based; conditions: human
[6] = molecular target: T1, von Hippel-Lindau disease tumor suppressor/Vascular endothelial growth factor receptor 2; test: PROTAC activity at VHL/VEGFR2 in human HGC-27 cells assessed as reduction in VEGFR2 protein level by measuring maximal efficacy at 3.33 uM incubated for 24 hrs by Western blot analysis relative to control; type: cell-based
Target sequence in this assay (P35968 20-1356 limits assumed): as the sequence (P35968 20-1356 limits assumed) above
Target sequence in this assay (P40337 whole entry partner): as the sequence (P40337 whole entry partner) above

[7] = molecular target: Vascular endothelial growth factor receptor 2 (Homo sapiens, UniProt P35968); test: Inhibition of VEGFR2 (unknown origin) at 1 uM by caliper mobility shift assay relative to control
Chain of Vascular endothelial growth factor receptor 2 (P35968 whole entry): as the sequence (P35968 whole entry) above

[8] = molecular target: T1, von Hippel-Lindau disease tumor suppressor/Vascular endothelial growth factor receptor 2; test: PROTAC activity at VHL/VEGFR2 in human HGC-27 cells assessed as induction of VEGRF2 protein degradation at 10 uM incubated for 2 hrs by Western blot analysis; type: cell-based
Target sequence in this assay (P35968 20-1356 limits assumed): as the sequence (P35968 20-1356 limits assumed) above
Target sequence in this assay (P40337 whole entry partner): as the sequence (P40337 whole entry partner) above

Structure (SMILES) | Emax [2] [%] | pEC50 [3] | Emax [6] [%] | inhibition [7] [%] | Activity [8] | IC50 at 72 h [1] [µM] | pIC50 (HGC-27) | IC50 at 72 h [4] [µM] | IC50 at 72 h [5] [µM]
Cc1ccc(NC(=O)Cn2cc(-c3ccc4c(NC(=O)c5ccc(NC(=O)CCCCCCCCCC(=O)N[C@H](C(=O)N6C[C@H](O)C[C@H]6C(=O)NCc6ccc(-c7scnc7C)cc6)C(C)(C)C)cc5)n[nH]c4c3)cn2)cc1C(F)(F)F | – | – | – | – | – | > 100 | 4.26 | 12 | > 50
Cc1ccc(NC(=O)Cn2cc(-c3ccc4c(NC(=O)c5ccc(NC(=O)CCC(=O)N[C@H](C(=O)N6C[C@H](O)C[C@H]6C(=O)NCc6ccc(-c7scnc7C)cc6)C(C)(C)C)cc5)n[nH]c4c3)cn2)cc1C(F)(F)F | – | – | – | – | – | 48.2 | < 4.30 | 47.4 | 28.2
Cc1ccc(NC(=O)Cn2cc(-c3ccc4c(NC(=O)CCCCCCCCCCC(=O)N[C@@H](C(=O)N5C[C@H](O)C[C@H]5C(=O)NCc5ccc(-c6scnc6C)cc5)C(C)(C)C)n[nH]c4c3)cn2)cc1C(F)(F)F | – | – | – | 60.4 | – | > 100 | < 4.30 | > 50 | > 50
CC(C)C[C@@H](C=O)NC(=O)[C@H](CC(C)C)NC(=O)[C@H](CC(C)C)NC(=O)OCc1ccccc1 (Cbz-Leu-Leu-Leu-aldehyde) | – | – | – | – | inactive | – | – | – | –
Cc1ccc(NC(=O)Cn2cc(-c3ccc4c(NC(=O)c5ccc(N6CCN(C(=O)NCCCCCCCCCCC(=O)N[C@H](C(=O)N7C[C@H](O)C[C@H]7C(=O)NCc7ccc(-c8scnc8C)cc7)C(C)(C)C)CC6)cc5)n[nH]c4c3)cn2)cc1C(F)(F)F | – | – | – | – | – | > 100 | < 4.30 | > 100 | > 100
Cc1ccc(NC(=O)Cn2cc(-c3ccc4c(NC(=O)c5ccc(N6CCN(CCCCCC(=O)N[C@H](C(=O)N7C[C@H](O)C[C@H]7C(=O)NCc7ccc(-c8scnc8C)cc7)C(C)(C)C)CC6)cc5)n[nH]c4c3)cn2)cc1C(F)(F)F | – | – | – | – | – | 43.8 | < 4.30 | > 100 | > 50
Cc1ccc(NC(=O)Cn2cc(-c3ccc4c(NC(=O)c5ccc(NC(=O)CCCCC(=O)N6CCN(CCCCCC(=O)N[C@H](C(=O)N7C[C@H](O)C[C@H]7C(=O)NCc7ccc(-c8scnc8C)cc7)C(C)(C)C)CC6)cc5)n[nH]c4c3)cn2)cc1C(F)(F)F | – | – | – | – | – | > 100 | 4.62 | 26.8 | > 50
Cc1ccc(NC(=O)Cn2cc(-c3ccc4c(NC(=O)c5ccc(N)cc5)nn(C(=O)CCCCCCCCC(=O)N[C@H](C(=O)N5C[C@H](O)C[C@H]5C(=O)NCc5ccc(-c6scnc6C)cc5)C(C)(C)C)c4c3)cn2)cc1C(F)(F)F | – | < 5.48 | – | – | – | 44.9 | 4.92 | 3.36 | 5.5
Cc1ccc(NC(=O)Cn2cc(-c3ccc4c(NC(=O)c5ccc(NC(=O)CCCCC(=O)N6CCN(CCCC(=O)N[C@H](C(=O)N7C[C@H](O)C[C@H]7C(=O)NCc7ccc(-c8scnc8C)cc7)C(C)(C)C)CC6)cc5)n[nH]c4c3)cn2)cc1C(F)(F)F | – | – | – | – | – | 38.2 | 4.51 | 25.4 | 10.9
Cc1ccc(NC(=O)Cn2cc(-c3ccc4c(NC(=O)c5ccc(NC(=O)CCCCC(=O)N6CCN(CCCCCCCC(=O)N[C@H](C(=O)N7C[C@H](O)C[C@H]7C(=O)NCc7ccc(-c8scnc8C)cc7)C(C)(C)C)CC6)cc5)n[nH]c4c3)cn2)cc1C(F)(F)F | – | – | – | – | – | 31.9 | 4.35 | 47.9 | 25
CNC(=O)c1cc(Oc2ccc(NC(=O)Nc3ccc(Cl)c(C(F)(F)F)c3)cc2)ccn1 [SORAFENIB] | – | – | – | – | – | 6.38 | 5.29 | 9.47 | 9.66
Cc1ccc(NC(=O)Cn2cc(-c3ccc4c(NC(=O)c5ccc(N6CCN(C(=O)NCCCCCCC(=O)N[C@H](C(=O)N7C[C@H](O)C[C@H]7C(=O)NCc7ccc(-c8scnc8C)cc7)C(C)(C)C)CC6)cc5)n[nH]c4c3)cn2)cc1C(F)(F)F | – | – | – | – | – | > 100 | < 4.30 | > 100 | > 100
Cc1ccc(NC(=O)Cn2cc(-c3ccc4c(NC(=O)c5ccc(N)cc5)nn(C(=O)CCCCCCCCCCC(=O)N[C@H](C(=O)N5C[C@H](O)C[C@H]5C(=O)NCc5ccc(-c6scnc6C)cc5)C(C)(C)C)c4c3)cn2)cc1C(F)(F)F | 81.7 | 6.49 | – | 96.3 | – | 25.9 | 5.84 | 49.7 | 34.6
Cc1ccc(NC(=O)Cn2cc(-c3ccc4c(NC(=O)c5ccc(N6CCN(C(=O)NCCCCCCCCC(=O)N[C@H](C(=O)N7C[C@H](O)C[C@H]7C(=O)NCc7ccc(-c8scnc8C)cc7)C(C)(C)C)CC6)cc5)n[nH]c4c3)cn2)cc1C(F)(F)F | – | – | – | – | – | > 100 | < 4.30 | > 100 | > 100

Second part, led by results:

Emax [2] [%] | pEC50 [3] | Emax [6] [%] | inhibition [7] [%] | Activity [8] | Structure (SMILES) | IC50 at 72 h [1] [µM] | pIC50 (HGC-27) | IC50 at 72 h [4] [µM] | IC50 at 72 h [5] [µM]
17.3 | < 5.48 | – | – | – | Cc1ccc(NC(=O)Cn2cc(-c3ccc4c(NC(=O)c5ccc(N6CCN(C(=O)NCCCCC(=O)N[C@H](C(=O)N7C[C@H](O)C[C@H]7C(=O)NCc7ccc(-c8scnc8C)cc7)C(C)(C)C)CC6)cc5)n[nH]c4c3)cn2)cc1C(F)(F)F | > 100 | < 4.30 | > 100 | > 100
13.5 | < 5.48 | – | – | – | Cc1ccc(NC(=O)Cn2cc(-c3ccc4c(NC(=O)c5ccc(NC(=O)CCCCCCCC(=O)N[C@H](C(=O)N6C[C@H](O)C[C@H]6C(=O)NCc6ccc(-c7scnc7C)cc6)C(C)(C)C)cc5)n[nH]c4c3)cn2)cc1C(F)(F)F | > 100 | 4.97 | 10.9 | > 50
– | 6.55 | 48 | – | – | Cc1ccc(NC(=O)Cn2cc(-c3ccc4c(NC(=O)c5ccc(NC(=O)CCCCCCC(=O)N[C@H](C(=O)N6C[C@H](O)C[C@H]6C(=O)NCc6ccc(-c7scnc7C)cc6)C(C)(C)C)cc5)n[nH]c4c3)cn2)cc1C(F)(F)F | 17.9 | 5.36 | 14.3 | 4.13
31 | < 5.48 | – | – | – | Cc1ccc(NC(=O)Cn2cc(-c3ccc4c(NC(=O)c5ccc(NC(=O)CCCCC(=O)N6CCN(CCCCCCC(=O)N[C@H](C(=O)N7C[C@H](O)C[C@H]7C(=O)NCc7ccc(-c8scnc8C)cc7)C(C)(C)C)CC6)cc5)n[nH]c4c3)cn2)cc1C(F)(F)F | 24.1 | 4.69 | 51.4 | 29.6
– | 6.48 | 62.6 | – | – | Cc1ccc(NC(=O)Cn2cc(-c3ccc4c(NC(=O)c5ccc(NC(=O)CCCCC(=O)N[C@H](C(=O)N6C[C@H](O)C[C@H]6C(=O)NCc6ccc(-c7scnc7C)cc6)C(C)(C)C)cc5)n[nH]c4c3)cn2)cc1C(F)(F)F | 46.8 | 5.00 | 46.4 | 13
38.5 | 6.19 | – | – | – | Cc1ccc(NC(=O)Cn2cc(-c3ccc4c(NC(=O)c5ccc(NC(=O)CCCCC(=O)N6CCN(CCCCC(=O)N[C@H](C(=O)N7C[C@H](O)C[C@H]7C(=O)NCc7ccc(-c8scnc8C)cc7)C(C)(C)C)CC6)cc5)n[nH]c4c3)cn2)cc1C(F)(F)F | 38.7 | 4.62 | 23.1 | 9.36
8.7 | < 5.48 | – | – | – | Cc1ccc(NC(=O)Cn2cc(-c3ccc4c(NC(=O)c5ccc(N6CCN(CCCCC(=O)N[C@H](C(=O)N7C[C@H](O)C[C@H]7C(=O)NCc7ccc(-c8scnc8C)cc7)C(C)(C)C)CC6)cc5)n[nH]c4c3)cn2)cc1C(F)(F)F | > 100 | < 4.30 | 60.3 | > 50
– | < 5.48 | – | – | – | Cc1ccc(NC(=O)Cn2cc(-c3ccc4c(NC(=O)c5ccc(NC(=O)CCCCCC(=O)N[C@H](C(=O)N6C[C@H](O)C[C@H]6C(=O)NCc6ccc(-c7scnc7C)cc6)C(C)(C)C)cc5)n[nH]c4c3)cn2)cc1C(F)(F)F | > 100 | 5.14 | 31.3 | > 50
– | < 5.48 | – | – | – | Cc1ccc(NC(=O)Cn2cc(-c3ccc4c(NC(=O)c5ccc(NC(=O)CCCCCCCCC(=O)N[C@H](C(=O)N6C[C@@H](O)C[C@H]6C(=O)NCc6ccc(-c7scnc7C)cc6)C(C)(C)C)cc5)n[nH]c4c3)cn2)cc1C(F)(F)F | > 100 | 5.68 | 5.13 | 12.2
– | 6.05 | 42.9 | – | – | Cc1ccc(NC(=O)Cn2cc(-c3ccc4c(NC(=O)c5ccc(NC(=O)CCCCCCCCCCC(=O)N[C@H](C(=O)N6C[C@H](O)C[C@H]6C(=O)NCc6ccc(-c7scnc7C)cc6)C(C)(C)C)cc5)n[nH]c4c3)cn2)cc1C(F)(F)F | 9.45 | 5.29 | 31.8 | 17.6
– | < 5.48 | – | – | – | Cc1ccc(NC(=O)Cn2cc(-c3ccc4c(NC(=O)c5ccc(N6CCN(CCCCCCCC(=O)N[C@H](C(=O)N7C[C@H](O)C[C@H]7C(=O)NCc7ccc(-c8scnc8C)cc7)C(C)(C)C)CC6)cc5)n[nH]c4c3)cn2)cc1C(F)(F)F | > 100 | 4.65 | > 100 | > 50
38.2 | < 5.48 | – | – | – | Cc1ccc(NC(=O)Cn2cc(-c3ccc4c(NC(=O)c5ccc(N6CCN(CCCCCCC(=O)N[C@H](C(=O)N7C[C@H](O)C[C@H]7C(=O)NCc7ccc(-c8scnc8C)cc7)C(C)(C)C)CC6)cc5)n[nH]c4c3)cn2)cc1C(F)(F)F | 38.6 | 5.26 | 22.4 | > 50
